In US7977366B2, “Treating an inflammatory disorder or inhibiting respiratory burst in adherent neutrophils with chemical inhibitors of neutrophil activation” (Cornell Research Foundation, Inc., priority 2003, dated 2011):

How the values were obtained:
[1] = tested on: human neutrophils; test: Reversibility of inhibition of TNF triggered respiratory burst after washing; type: cell-based; conditions: washed twice with cold KRPG before TNF 100 ng/ml
Description: Neutrophils were incubated with test compounds I-V or DMSO at 37° C. for 30 min in FBS coated tubes (Falcon, Cat. Number 352063), washed twice with cold KRPG, and plated in 96 well plates before stimulation with TNF (100 ng/ml) or an equivalent volume of KRPG buffer as a control. On a separate plate, compounds were added back to the neutrophils that were washed off compounds, and cells were stimulated to ensure neutrophils' capacity to respond. Neutrophils incubated with each compound without washing were also stimulated for comparison.

[2] = tested on: p47phox; test: Translocation of p47phox subunit to the cell membrane (western blot of membrane fraction); type: cell-based, human; conditions: TNF or PMA stimulation
Text: In an attempt to identify specific steps of the biochemical pathway(s) that are influenced by Comp II, the effect on translocation of phagocyte oxidase (Phox) translocation was examined. Phox is a multi-subunit enzyme complex that generates H2O2 upon activation. Activation of Phox requires an assembly of both membrane associated and cytosolic subunits at the plasma or phagosomal membrane as well as phosphorylation of several subunits. The cytochrome b559 (also known as b558) components of phox (gp91 and gp22) are localized on the membranes of specific granules (Bjerrum et al, “Dual Granule Localization of the Dormant NADPH Oxidase and Cytochrome b559 in Human Neutrophils,” Eur J Haematol 43(1): 67-77 (1989), which is hereby incorporated by reference in its entirety), and recruitment of these subunits to the membrane occurs simultaneously with degranulation. […] The influence of Comp II on the translocation of p47phox subunit, one of the components of NADPH oxidase, to the cell membrane, was examined as follows.
Neutrophil lysates were prepared as above with 2.5% TritonX-100 lysis buffer (final concentration of 1% TritonX-100 after dilution in plate with residual KRPG). The cell lysate was passed through 26-gauge needle six times to shear DNA and centrifuged at 20,000×g for 15 min to remove cell debris and DNA. […]

O=C1CC(c2ccccc2)=NN1c1cccc(Cl)c1 [Comp II, 2-(3-Chloro-phenyl)-5-phenyl-2,4-dihydro-pyrazol-3-one]
reversibility of inhibition of TNF triggered respiratory burst [1]: greatest reversibility
activation triggered translocation of phox 47 to the membrane [2]: not inhibited
